In a compilation of properties of binary mixtures (doi:10.1016/j.jct.2017.08.033):

Test: xn = mol fraction of the nth substance listed
Details: 101 kPa

O=S(=O)([N-]S(=O)(=O)C(F)(F)F)C(F)(F)F.[Li+] + CC[n+]1ccn(C)c1.O=S(=O)([N-]S(=O)(=O)C(F)(F)F)C(F)(F)F
viscosity [mPa·s]
Details	298.15 K	313.15 K	328.15 K	343.15 K	358.15 K
x2 = 0.6	588	225	108.2	60.8	38.3
x2 = 0.7	183	86.6	47.6	29.6	20.1
x2 = 0.8	–	47.5	28.5	18.8	–
x2 = 0.9	46.6	27.4	17.8	12.42	9.08
x2 = 0.95	37.4	22.7	15.1	10.69	7.96

CC[n+]1ccn(C)c1.O=S(=O)([N-]S(=O)(=O)C(F)(F)F)C(F)(F)F + O=S(=O)([N-]S(=O)(=O)C(F)(F)F)C(F)(F)F.[Li+]
x1 = 1
Details	viscosity [mPa·s]
298.15 K	30.7
328.15 K	13.1
358.15 K	7.12
